Like-named read-outs stand apart in the source and are kept apart here. Marks after values point to notes of the source that are not given here.
Assays:
[1] = Crossover pharmacokinetic study of Bumetanide Dibenzylamide formulations (IN, SL, IM, PO, SC, IR) in Beagle dogs, plasma LC-MS/MS; format: in vivo; conditions: for half-life: read-out: t½ (converted)
Method: Male and female Beagle dogs are assigned to two groups with 2 males and 2 females in each group. The study is conducted in 3 legs with Leg 1 consisting of IM and SL administration, Leg 2 consisting of IN and PO administration, and Leg 3 consisting of SC and IR administration.
During intranasal administration, the composition is administered by gently tilting the animals head back and the intranasal dose is delivered via a syringe and atomizer. During sublingual administration, the composition is administered via a quick dissolving tablet. The tablet is placed in the sublingual space and the mouth held shut for approximately 60-90 seconds. After one minute, the mouth of the animal is opened to confirm that the tablet has fully dissolved. During intramuscular administration, the composition is administered into the bicep femoris (rear thigh). The dose site is gently shaved prior to dosing. A syringe with a 25 g needle is utilized. During oral administration, the composition is administered via three capsules placed at the back of the animal's mouth and the placement is followed by a 10 mL drinking water flush to assure that the animal swallowed the capsules. During subcutaneous administration, the composition is administered into the dorsal subcutaneous space directly at the scruff of the neck of the animal. The dose site is gently shaved prior to dosing. A syringe with a 25 g needle is utilized. During intrarectal administration, the composition is administered by gently placing a 1 cc syringe in the rectum of the animal.
All animals are fasted for approximately 12 hours prior to dosing. Animals are fed four hours post dosing with water offered ad libitum throughout the study. All animals completed the study. […] Blood and urine samples are collected out to 24 hours.
Blood sample are collected from the jugular vein, or other suitable vessel via direct venipuncture, placed into a chilled tube containing K2EDTA as the anticoagulant, and inverted several times to mix. Blood samples are kept on wet ice until centrifugation.
The assay is verified with respect to standard bioanalytical methodology including acceptable accuracy and precision based upon quality control sample analysis and results. The range of the method for both analytes is from about 0.250 ng/ml to about 250 ng/mL.
The PK parameters defined in Table 10 are calculated by non-compartmental methods using individual animal concentration-time data. […] Nominal blood sampling times are used in the analysis. […] Individual below quantitation limits (BQL) results are set to zero for all calculations. No animals are excluded from the analysis. In one aspect, non-compartmental pharmacokinetic analysis provides observed or calculated values of Cmax, Tmax, and AUClast for all animals and estimates of AUCinf and CL/F for those animals where a terminal phase half-life (t1/2) could be estimated.

[2] = Oral delivery of unformulated Bumetanide Dibenzylamide in Beagle dogs, pharmacokinetics and bioavailability; format: in vivo
[3] = physchem
From the text: Crucial to the efficacy of any treatment by a pharmaceutical composition is the overall systemic bioavailability of the pharmaceutical composition used for said treatment. […] LogP is one measure of lipophyilicity, and is the octal:water partition coefficient expressed as a log ratio of molecule in octanol relative to water after mixing.

[4] = Solubility at 50° C. in common SEDDS excipients by visual inspection; format: physicochemical
[5] = both sexes, Beagle, dog, plasma, po, 30 mg, PO capsules
[6] = both sexes, Beagle, dog, plasma, sc, 15 mg

## CCCCNc1cc(C(=O)N(Cc2ccccc2)Cc2ccccc2)cc(S(N)(=O)=O)c1Oc1ccccc1 [Bumetanide Dibenzylamide, N, N-dibenzyl 3-aminosulfonyl-5-butylamino-4-phenoxybenzamide]
[1]; SL, 30 mg, mean
  Tmax: 1.50 h
[1]; all routes, 15 or 30 mg
  adverse reactions: no adverse reactions are noted
[1]; both sexes, Beagle, dog, plasma, 30 mg, IR
  AUC(0-inf): 55.1 ng·h/mL
[1]; both sexes, Beagle, dog, plasma, 30 mg, IR, 30 mg, read-out: mean Cmax
  Cmax: 8.44 ng/mL
[1]; both sexes, Beagle, dog, plasma, 30 mg, SL
  AUC(0-inf): 17.7 ng·h/mL
[1]; both sexes, Beagle, dog, plasma, 30 mg, SL, 30 mg, read-out: Tmax
  Tmax: 2 h
[1]; both sexes, Beagle, dog, plasma, 30 mg, SL, 30 mg
  half-life: 5.26 h
[1]; both sexes, Beagle, dog, plasma, inhaled or intranasal, 15 mg, IN
  AUC(0-inf): 211 ng·h/mL
[1]; [5]
  AUC(0-inf): 814 ng·h/mL
  AUC(0-t): 956 ng·h/mL
[1]; both sexes, Beagle, dog, plasma, po, 30 mg, PO capsules, 30 mg, read-out: Cmax
  Cmax: 218 ng/mL
[1]; both sexes, Beagle, dog, plasma, po, 30 mg, PO capsules, 30 mg, read-out: Tmax
  Tmax: 2 h
[1]; both sexes, Beagle, dog, plasma, po, 30 mg, PO capsules, 30 mg
  half-life: 5.89 h
[1]; [6]
  AUC(0-inf): 231 ng·h/mL
  AUC(0-t): 153 ng·h/mL
[1]; both sexes, Beagle, dog, plasma, sc, 15 mg, SC, 15 mg
  half-life: 21.5 h
[2]; Beagle, dog, in vivo, 30 mg, oral non-formulated, read-out: Absolute Bioavailability
  bioavailability: ~5.1%
[2]; Beagle, dog, plasma, oral, 30 mg/kg, Plasma Bumetanide Dibenzylamide concentration, oral non-formulated 30 mg/kg, 0.5 h
  concentration at 0.5 h: 2.99 ng/mL
[2]; Beagle, dog, plasma, oral, 30 mg/kg, Plasma Bumetanide Dibenzylamide concentration, oral non-formulated 30 mg/kg, 4 h
  concentration at 4 h: 149 ng/mL
[2]; Beagle, dog, plasma, oral, 30 mg/kg, Plasma Bumetanide Dibenzylamide concentration, oral non-formulated 30 mg/kg, 6 h
  concentration at 6 h: 151 ng/mL
[2]; Beagle, dog, plasma, oral, 30 mg/kg, Plasma Bumetanide Dibenzylamide concentration, oral non-formulated 30 mg/kg, 8 h
  concentration at 8 h: 101 ng/mL
[2]; Beagle, dog, plasma, oral, 30 mg/kg, Plasma Bumetanide Dibenzylamide concentration, oral non-formulated 30 mg/kg, 12 h
  concentration at 12 h: 40.1 ng/mL
[2]; oral non-formulated 30 mg/kg, 0.5 h
  Plasma Bumetanide Dibenzylamide concentration: 2.17 ng/mL
[2]; oral non-formulated 30 mg/kg, 0.5 h, mean
  Plasma Bumetanide Dibenzylamide concentration: 2.58 ng/mL
[2]; oral non-formulated 30 mg/kg, 4 h
  Plasma Bumetanide Dibenzylamide concentration: 136 ng/mL
[2]; oral non-formulated 30 mg/kg, 4 h, mean
  Plasma Bumetanide Dibenzylamide concentration: 143 ng/mL
[2]; oral non-formulated 30 mg/kg, 6 h
  Plasma Bumetanide Dibenzylamide concentration: 153 ng/mL
[2]; oral non-formulated 30 mg/kg, 6 h, mean
  Plasma Bumetanide Dibenzylamide concentration: 152 ng/mL
[2]; oral non-formulated 30 mg/kg, 8 h
  Plasma Bumetanide Dibenzylamide concentration: 132 ng/mL
[2]; oral non-formulated 30 mg/kg, 8 h, mean
  Plasma Bumetanide Dibenzylamide concentration: 117 ng/mL
[2]; oral non-formulated 30 mg/kg, 12 h
  Plasma Bumetanide Dibenzylamide concentration: 50.5 ng/mL
[2]; oral non-formulated 30 mg/kg, 12 h, mean
  Plasma Bumetanide Dibenzylamide concentration: 45.3 ng/mL
[3]
  logP: ~5.9
[4]; Captex 300 (Caprylic/Capric Triglyceride, Medium Chain Triglyceride), 50° C.
  Bumetanide Dibenzylamide, in solution: <1* mg/ml
[4]; Drakeol 6VR LT (Mineral Oil), 50° C.
  Bumetanide Dibenzylamide, in solution: <1* mg/ml
[4]; Kolliphor EL (Polyoxyl 35 castor oil), 50° C.
  Bumetanide Dibenzylamide, in solution: 13.5 mg/mL
[4]; Labrafac Lipophile WL 1349 (Medium Chain Triglyceride), 50° C.
  Bumetanide Dibenzylamide, in solution: 3 mg/mL
[4]; Labrafil M 1944CS (Oleoyl polyoxyl 1-6 glycerides), 50° C.
  Bumetanide Dibenzylamide, in solution: 4.5 mg/mL
[4]; Labrasol ALF (Caprylocaproyl Polyoxylglycerides), 50° C.
  Bumetanide Dibenzylamide, in solution: 63 mg/mL
[4]; Lauroyl Plyoxyl-32 Glycerides (Gelucire 44/14), 50° C.
  Bumetanide Dibenzylamide, in solution: 106 mg/mL
[4]; Oleic Acid, 50° C.
  Bumetanide Dibenzylamide, in solution: <1* mg/ml
[4]; Oleyl Alcohol, 50° C.
  Bumetanide Dibenzylamide, in solution: <1* mg/ml
[4]; Polyethylene Glycol 400, 50° C.
  Bumetanide Dibenzylamide, in solution: 8.6 mg/mL
[4]; Propylene Glycol, 50° C.
  Bumetanide Dibenzylamide, in solution: 2 mg/mL
[4]; Sorbitan Ester (Span 80), 50° C.
  Bumetanide Dibenzylamide, in solution: 250 mg/mL
[4]; Soybean Oil, 50° C.
  Bumetanide Dibenzylamide, in solution: 2 mg/mL

Source: US20250120932A1, “PHARMACEUTICAL COMPOSITION” (NEUROPRO THERAPEUTICS, INC., priority 2021, published 2025)
